Measured values from patent US12605442B2 (priority 2020, dated 2026).
Entries after “also recorded” stand apart in the source; their conditions may differ.

Columns and labels:
[1] = system: lentivirus; test: lentivirus inactivation by photosensitizer and UV light
[2] = system: recombinant adeno-associated virus (AAV); details: reagent alone, room temperature, 2 hours
[3] = system: recombinant AAV; test: AAV particle size by dynamic light scattering; assay type: physicochemical
[4] = rats
[5] = system: MERS CoV; details: riboflavin 50 micromolar and UV light, six minutes, plasma; cited from earlier work
[6] = system: SARS-CoV-2; test: SARS-CoV-2 inactivation in Mirasol device; details: 50 μM riboflavin

| Compound | time to inactivation of lentivirus ([1]; 1.5 mM psoralen and UV light) | infectious titer of recombinant AAV [2] | change in particle size distribution ([3]; 1.5 mM psoralen and UV light) | time to complete inactivation of lentivirus ([1]; 50 μM riboflavin in the presence of UV light) | average hydrodynamic radius of viral aggregates ([3]; 50 μM riboflavin and UV light, later time points) | toxicity of residual riboflavin remaining after viral inactivation [4] | MERS coronavirus titers [5] | Log Reduction in viral titer ([6]; 100 Joules UV in 19 seconds, 100 mLs, limit of detection 1.0 Log per mL) | inactivation of SARS-CoV-2 ([6]; about 100 Joules UV, to the limit of detection) |
| --- | --- | --- | --- | --- | --- | --- | --- | --- | --- |
| O=c1ccc2cc3ccoc3cc2o1 [psoralen] | approximately 2 hours | reduce the infectious titer | No significant change in particle size distribution |  |  |  |  |  |  |
| Cc1cc2nc3c(=O)[nH]c(=O)nc-3n(C[C@H](O)[C@H](O)[C@H](O)CO)c2cc1C [riboflavin] |  | reduce the infectious titer |  | ≤ 20 min | greater than 60 nm | does not induce toxicity | reduction | greater than 4.2 Log | Complete inactivation; also recorded: completely inactivated |
